In patent US20260295053A1, “COMPOUNDS FOR DEGRADATION AND INHIBITION OF KRAS (G12D) PROTEIN” (Shenzhen Ionova Life Science Co., Ltd., priority 2023, published 2026):

Target: T1, KRAS (G12D) (Homo sapiens, UniProt P01116, G12D)
T1 construct: in-cell western with KRAS G12D antibody after 24 h
Experiment: KRAS (G12D) cellular degradation assay in AsPC-1 cells
Format: cell-based
Settings: 24 hours, antibody fluorescence (Odyssey CLX), DC50 half-maximal degradation concentration
Experimental: ASPC-1 and PK-59 cellular assays ASPC-1 (ATCC cat. CRL-1682) and PK-59 (Nanjing Cobioer, Cat. No. CBP61184) were used in KRAS cellular degradation, pERK inhibition and proliferation assays. The two cell lines were maintained following vendor's instructions. For monitoring KRAS (G12D) cellular degradation and pERK biomarker inhibition, cells were seeded into a 96-well plate with 22,000 and 16,000 cells/well for assays in ASPC-1 and PK-59, respectively. Cells were incubated at 37° C. with 5% CO2 and cell density was monitored until ^~90% confluency was reached. Compounds were serially diluted at a 1:3 ratio and dispensed into each well at final concentrations ranging from […] to 1.5 nM. After incubation for 24 hours, the culture media were removed and the cells were subjected to fixation, permeabilization and blocking (Intercept blocking buffer, Li-cor). For KRAS (G12D) degradation, the cells were treated with primary antibody (KRAS G12D antibody, Cell Signaling Technologies, Cat. No. CST14429) and for β-actin (β-actin mAb, Beyotime, Cat. No. AF-5001), and followed by secondary antibodies, Anti-rabbit IgG (H+L) (DyLight™ 800 4×PEG Conjugate) or IRDye® 680RD Goat anti-Mouse IgG. For pERK inhibition assay, cells were treated with primary antibodies for pERK (Phospho-p44/42 MAPK (Erk1/2) (Thr202/Tyr204) (D13.14.4E) XP® Rabbit mAb, Cell Signaling Technologies, Cat. No. CST-4370) and β-actin (β-actin mAb, Beyotime, Cat. No. AF-5001), and followed by secondary antibodies, Anti-rabbit IgG (H+L) (DyLight™ 800 4×PEG Conjugate) or IRDye® 680RD Goat anti-Mouse IgG. Fluorescence signals were read on Odyssey CLX instrument. For cell proliferation assays, cells were seeded into a 96-well plate at 3,500 and 800 cells/well for assays in ASPC-1 and PK-59, respectively. Cells were incubated at 37° C. with 5% CO2 for overnight. Compounds were serially diluted at a 1:3 ratio and dispensed into each well at final concentrations ranging from […] to 1.5 nM. After incubation for 6 days, cell viability reagent (CellTiter Glo, Promega, Cat. No. G7573) was added to each well and luminescence was recorded on Molecular Devices Spectramax iD3 instrument. IC50, half-maximal inhibitory concentration for pERK inhibition or cell proliferation, and DC50, half-maximal degradation concentration in KRAS (G12D) cellular degradation were determined by fitting the corresponding dose response curves using GraphPad Prism software.
Wherein “A” means the value <10 nM, “B” means 10 nM<the value <100 nM, “C” means 100 nM<the value <1000 nM, and “D” means the value >1000 nM, in which, the value means the value of DC50 or IC50. NT means not tested.

T1 sequence (P01116 1-188 isoform P01116-2 G12D): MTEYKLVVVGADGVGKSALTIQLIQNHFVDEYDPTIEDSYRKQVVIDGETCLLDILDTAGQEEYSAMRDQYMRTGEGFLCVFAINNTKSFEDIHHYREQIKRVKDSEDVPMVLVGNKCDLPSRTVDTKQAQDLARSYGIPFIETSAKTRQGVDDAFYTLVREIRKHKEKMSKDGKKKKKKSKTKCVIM

Row | SMILES | DC50 [nM]
1 | CO[C@@H](C)COc1nc(N2C[C@@H]3C[C@H]2CN3)c2cc(C3CC3)c(-c3c(C)c(F)cc4[nH]ncc34)c(OCc3ccc(-c4cn([C@H](C(=O)N5C[C@H](O)C[C@H]5C(=O)N[C@H](C#Cc5cccc6c5cnn6C)CO)C(C)C)nn4)cc3)c2n1 [Example 134, (2S,4R)-1-((2S)-2-(4-(4-(((4-((1S,4S)-2,5-diazabicyclo[2.2.1]heptan-2-yl)-6-cyclopropyl-7-(6-fluoro-5-methyl-1H-indazol-4-yl)-2-((S)-2-methoxypropoxy)quinazolin-8-yl)oxy)methyl)phenyl)-1H-1,2,3-triazol-1-yl)-3-methylbutanoyl)-4-hydroxy-N—((R)-1-hydroxy-4-(1-methyl-1H-indazol-4-yl)but-3-yn-2-yl)pyrrolidine-2-carboxamide] | 10 to 100
2 | CO[C@@H](C)COc1nc(N2C[C@@H]3C[C@H]2CN3)c2cc(C3CC3)c(-c3c(C)c(F)cc4[nH]ncc34)c(OCc3ccc(-c4cn([C@H](C(=O)N5C[C@H](O)C[C@H]5C(=O)N[C@H](C#Cc5cccc6c5ncn6C)CO)C(C)C)nn4)cc3)c2n1 [Example 140, (2S,4R)-1-((2S)-2-(4-(4-(((4-((1S,4S)-2,5-diazabicyclo[2.2.1]heptan-2-yl)-6-cyclopropyl-7-(6-fluoro-5-methyl-1H-indazol-4-yl)-2-((S)-2-methoxypropoxy)quinazolin-8-yl)oxy)methyl)phenyl)-1H-1,2,3-triazol-1-yl)-3-methylbutanoyl)-4-hydroxy-N—((R)-1-hydroxy-4-(1-methyl-1H-benzo[d]imidazol-4-yl)but-3-yn-2-yl)pyrrolidine-2-carboxamide] | 10 to 100
3 | CO[C@@H](C)COc1nc(N2C[C@@H]3C[C@H]2CN3)c2cc(C3CC3)c(-c3c(C)c(F)cc4[nH]ncc34)c(OCc3ccc(-c4cn([C@H](C(=O)N5C[C@H](O)C[C@H]5C(=O)N[C@H](C#Cc5cc(F)cc(F)c5)CO)C(C)C)nn4)cc3)c2n1 [Example 141, (2S,4R)-1-((2S)-2-(4-(4-(((4-((1S,4S)-2,5-diazabicyclo[2.2.1]heptan-2-yl)-6-cyclopropyl-7-(6-fluoro-5-methyl-1H-indazol-4-yl)-2-((S)-2-methoxypropoxy)quinazolin-8-yl)oxy)methyl)phenyl)-1H-1,2,3-triazol-1-yl)-3-methylbutanoyl)-N—((R)-4-(3,5-difluorophenyl)-1-hydroxybut-3-yn-2-yl)-4-hydroxypyrrolidine-2-carboxamide] | 10 to 100
4 | CCn1nccc1-c1ccc([C@@H](NC(=O)[C@@H]2C[C@@H](O)CN2C(=O)[C@H](C(C)C)n2cc(-c3ccc(COc4c(-c5c(C)c(F)c(F)c6[nH]ncc56)c(C5CC5)cc5c(N(C)[C@H]6CCNC6)nc(OC[C@H](C)OC)nc45)cc3)nn2)[C@H](C)O)cc1 [Example 146, (2S,4R)-1-((2S)-2-(4-(4-(((6-cyclopropyl-7-(6,7-difluoro-5-methyl-1H-indazol-4-yl)-2-((S)-2-methoxypropoxy)-4-(methyl((S)-pyrrolidin-3-yl)amino)quinazolin-8-yl)oxy)methyl)phenyl)-1H-1,2,3-triazol-1-yl)-3-methylbutanoyl)-N-((1R,2S)-1-(4-(1-ethyl-1H-pyrazol-5-yl)phenyl)-2-hydroxypropyl)-4-hydroxypyrrolidine-2-carboxamide] | 10 to 100
5 | CCn1ncc2c(C#C[C@H](CO)NC(=O)[C@@H]3C[C@@H](O)CN3C(=O)[C@H](C(C)C)n3cc(-c4ccc(COc5c(-c6c(C)c(F)cc7[nH]ncc67)c(C6CC6)cc6c(N7C[C@@H]8C[C@H]7CN8)nc(O[C@H]7C[C@@H](OC)C7)nc56)cc4)nn3)cccc21 [Example 163, (2S,4R)-1-((2S)-2-(4-(4-(((4-((1S,4S)-2,5-diazabicyclo[2.2.1]heptan-2-yl)-6-cyclopropyl-2-((1r,3R)-3-methoxycyclobutoxy)-7-(6-fluoro-5-methyl-1H-indazol-4-yl)quinazolin-8-yl)oxy)methyl)phenyl)-1H-1,2,3-triazol-1-yl)-3-methylbutanoyl)-N—((R)-4-(1-ethyl-1H-indazol-4-yl)-1-hydroxybut-3-yn-2-yl)-4-hydroxypyrrolidine-2-carboxamide] | 10 to 100

Second part, the compound after the results:

Row | DC50 [nM] | SMILES
6 | < 10 | CCn1nccc1-c1ccc([C@H](CO)NC(=O)[C@@H]2C[C@@H](O)CN2C(=O)[C@H](C(C)C)n2cc(-c3ccc(COc4c(-c5c(C)c(F)cc6[nH]ncc56)c(C5CC5)cc5c(N6C[C@@H]7C[C@H]6CN7)nc(N6CCC(OC)CC6)nc45)cc3)nn2)cc1 [Example 124, (2S,4R)-1-((2S)-2-(4-(4-(((4-((1S,4S)-2,5-diazabicyclo[2.2.1]heptan-2-yl)-6-cyclopropyl-7-(6-fluoro-5-methyl-1H-indazol-4-yl)-2-(4-methoxypiperidin-1-yl)quinazolin-8-yl)oxy)methyl)phenyl)-1H-1,2,3-triazol-1-yl)-3-methylbutanoyl)-N—((R)-1-(4-(1-ethyl-1H-pyrazol-5-yl)phenyl)-2-hydroxyethyl)-4-hydroxypyrrolidine-2-carboxamide]
7 | 10 to 100 | CCn1nccc1-c1ccc([C@H](CO)NC(=O)[C@@H]2C[C@@H](O)CN2C(=O)[C@H](C(C)C)n2cc(-c3ccc(COc4c(-c5c(C)c(F)cc6[nH]ncc56)c(C5CC5)cc5c(N6C[C@@H]7C[C@H]6CN7)nc(N6CCC(COC)C6)nc45)cc3)nn2)cc1 (stereo partly drawn) [Example 125, (2S,4R)-1-((2S)-2-(4-(4-(((4-((1S,4S)-2,5-diazabicyclo[2.2.1]heptan-2-yl)-6-cyclopropyl-7-(6-fluoro-5-methyl-1H-indazol-4-yl)-2-(3-(methoxymethyl)pyrrolidin-1-yl)quinazolin-8-yl)oxy)methyl)phenyl)-1H-1,2,3-triazol-1-yl)-3-methylbutanoyl)-N—((R)-1-(4-(1-ethyl-1H-pyrazol-5-yl)phenyl)-2-hydroxyethyl)-4-hydroxypyrrolidine-2-carboxamide]
8 | 10 to 100 | CCn1nccc1-c1ccc([C@H](CO)NC(=O)[C@@H]2C[C@@H](O)CN2C(=O)[C@H](C(C)C)n2cc(-c3ccc(COc4c(-c5c(C)c(F)cc6[nH]ncc56)c(C5CC5)cc5c(N6C[C@@H]7C[C@H]6CN7)nc(N6CC(OC)C6)nc45)cc3)nn2)cc1 [Example 126, (2S,4R)-1-((2S)-2-(4-(4-(((4-((1S,4S)-2,5-diazabicyclo[2.2.1]heptan-2-yl)-6-cyclopropyl-7-(6-fluoro-5-methyl-1H-indazol-4-yl)-2-(3-methoxyazetidin-1-yl)quinazolin-8-yl)oxy)methyl)phenyl)-1H-1,2,3-triazol-1-yl)-3-methylbutanoyl)-N—((R)-1-(4-(1-ethyl-1H-pyrazol-5-yl)phenyl)-2-hydroxyethyl)-4-hydroxypyrrolidine-2-carboxamide]
9 | < 10 | CCn1nccc1-c1ccc([C@H](CO)NC(=O)[C@@H]2C[C@@H](O)CN2C(=O)[C@H](C(C)C)n2cc(-c3ccc(COc4c(-c5c(C)c(F)cc6[nH]ncc56)c(C5CCC5)cc5c(N6C[C@@H]7C[C@H]6CN7)nc(OC6CCC7(CC6)COC7)nc45)cc3)nn2)cc1 [Example 137, (2S,4R)-1-((2S)-2-(4-(4-(((2-((2-oxaspiro[3.5]nonan-7-yl)oxy)-4-((1S,4S)-2,5-diazabicyclo[2.2.1]heptan-2-yl)-6-cyclobutyl-7-(6-fluoro-5-methyl-1H-indazol-4-yl)quinazolin-8-yl)oxy)methyl)phenyl)-1H-1,2,3-triazol-1-yl)-3-methylbutanoyl)-N—((R)-1-(4-(1-ethyl-1H-pyrazol-5-yl)phenyl)-2-hydroxyethyl)-4-hydroxypyrrolidine-2-carboxamide]
